Legend:
[1] = molecular target: Carbonic anhydrase 2 (Homo sapiens, UniProt P00918); assay: Inhibition of human carbonic anhydrase 2 incubated for 15 mins prior to testing by stopped flow CO2 hydration assay
[2] = molecular target: T1, Carbonic anhydrase 9 (Homo sapiens, UniProt Q16790)
Description: Inhibition of human carbonic anhydrase 9 incubated for 15 mins prior to testing by stopped flow CO2 hydration assay

[3] = molecular target: T1, Carbonic anhydrase 9; assay: Activation of human carbonic anhydrase 9 incubated for 15 mins prior to testing by stopped flow CO2 hydration assay
[4] = molecular target: Carbonic anhydrase 1 (Homo sapiens, UniProt P00915); assay: Inhibition of human carbonic anhydrase 1 incubated for 15 mins prior to testing by stopped flow CO2 hydration assay
Chain of Carbonic anhydrase 1 (P00915 whole entry): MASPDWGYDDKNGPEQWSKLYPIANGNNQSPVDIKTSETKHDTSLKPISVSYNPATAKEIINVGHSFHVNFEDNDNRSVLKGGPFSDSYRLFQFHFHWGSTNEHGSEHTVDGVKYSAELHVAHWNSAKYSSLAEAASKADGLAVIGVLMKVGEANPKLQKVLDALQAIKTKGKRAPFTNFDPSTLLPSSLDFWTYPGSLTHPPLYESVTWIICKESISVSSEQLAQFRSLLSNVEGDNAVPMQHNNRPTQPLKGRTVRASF

| Ki [1] [nM] | Ki [2] [nM] | Activity [3] [µM] | Ki [4] [nM] | Structure (SMILES) |
| --- | --- | --- | --- | --- |
| > 10000 |  |  |  | Cc1ccc(NC(=S)NNC(=O)c2ccccc2O)cc1 |
| > 10000 | 878 |  |  | CCNC(=S)NNC(=O)c1ccccc1O |
| > 10000 | 980 |  |  | O=C(NNC(=S)NCc1ccccc1)c1ccccc1O |
| > 10000 | 1220 |  |  | O=C(NNC(=S)Nc1ccccc1)c1ccccc1O |
| > 10000 | 760 |  |  | C=CCNC(=S)NNC(=O)c1ccccc1O |
|  | 317 | 1.42 | 34.1 | O=C(NNC(=S)Nc1ccccc1)c1ccncc1 |
|  | 970 | 12.3 | 871 | C=CCNC(=S)NNC(=O)c1ccncc1 |
| > 10000 | 1010 |  |  | NC(=S)NNC(=O)c1ccccc1O |
|  |  | 3.61 |  | NC(=S)NNC(=O)c1ccncc1 |
|  | 1120 | 2.57 |  | Cc1ccc(NC(=S)NNC(=O)c2ccncc2)cc1 |
|  | 884 | 12.5 | 96.9 | CCN=C(S)NNC(=O)c1ccncc1 |

| Structure (SMILES) | Ki [1] [nM] | Ki [2] [nM] | Activity [3] [µM] | Ki [4] [nM] |
| --- | --- | --- | --- | --- |
| O=C(NNC(=S)NCc1ccccc1)c1ccncc1 |  | 964 | 0.81 |  |
